# Assay results reported in patent publication US9708314B2, “Heterocyclic amide compound” (NISSAN CHEMICAL INDUSTRIES, LTD., priority 2013, dated 2017).
# Experiments:
# Type in all cases: in vivo
# [1] = tested on: Brassica campestris L.; assay: Test Example 4: effect on crop by application to foliage (diluvial soil, plastic box); conditions: application to foliage, application herbicide amount 320 g/ha
# Summary of the method: (§1)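 Read-out is a 0–5 visual grade of herbicidal ratio (5: ≥90%, almost withered; 0: ≤5%) taken three weeks after treatment. Compound was applied as a diluted emulsion to stem and leaf parts of 14-day greenhouse-grown plants (25° C. to 30° C.) at rates expressed as g/ha.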
# [2] = tested on: Zea mays; assay: as above; conditions: application to foliage, application herbicide amount 320 g/ha
# Summary of the method: as §1
# [3] = tested on: directly sowed Oryza sativa; assay: as above; conditions: application to foliage, application herbicide amount 320 g/ha
# Summary of the method: as §1
# [4] = tested on: Glycine max; assay: as above; conditions: application to foliage, application herbicide amount 320 g/ha
# Summary of the method: as §1
# [5] = tested on: Triticum aestivum; assay: as above; conditions: application to foliage, application herbicide amount 320 g/ha
# Summary of the method: as §1
# [6] = tested on: Beta vulgaris ssp. vulgaris; assay: as above; conditions: application to foliage, application herbicide amount 320 g/ha
# Summary of the method: as §1
# [7] = tested on: Monochoria vaginalis; assay: Test Example 1: herbicidal activity, application before weed generation in submerged conditions; conditions: Application herbicide amount 320 g/ha; Seventeenth Table
# From the text: (§2) [Test Example 1] Herbicidal Activity Test by Application Before Weed Generation in Submerged Conditions After alluvial soil was placed into 1/10000 are of Wagner pot, water was poured and mixed to form a submerged condition having a water depth of 4 cm. Seeds of Echinochloa oryzacola Vasing., Scirpus juncoides, and Monochoria vaginalis were sowed in a mixed manner in the above pot and thereafter 2.5 leaf stage Oryza sativa seedling was transplanted. On the day of sowing seeds, the emulsion agent containing the compound of the present invention prepared in accordance with Formulation Example 2 was diluted with water so as to be a predetermined herbicide amount and the diluted compound was applied to the surface of the water. The pot was placed in a greenhouse of 25° C. to 30° C. to grow plant. Three weeks after the herbicide application, effects on each plant were investigated in accordance with the following criteria. Criteria 5 Herbicidal ratio of 90% or more (almost completely withered) 4 Herbicidal ratio of 70% or more and less than 90% 3 Herbicidal ratio of 40% or more and less than 70% 2 Herbicidal ratio of 20% or more and less than 40% 1 Herbicidal ratio of 5% or more and less than 20% 0 Herbicidal ratio of 5% or less (almost no effect) A: Echinochloa oryzicola Vasing., B: Scirpus juncoides, C: Monochoria vaginalis, D: Leptochloa chinensis, E: Cyperus difformis, F: Digitaria ciliaris, G: Setaria viridis, H: Echinochloa crus-galli var. crus-galli, I: Avena fatua, J: Alopecurus myosuroides, K: Lolium multiflorum Lam., L: Apera spica-venti., M: Abutilon theophrasti, N: Amaranthus retroflexus, O: Chenopodium album, P: Stellaria media, Q: Galium spurium, R: Veronica persica, a: transplanted Oryza sativa, b: directly sowed Oryza sativa, c: Zea mays, d: Glycine max, e: Triticum aestivum, f: Beta vulgaris ssp. vulgaris, and g: Brassica campestris L. The application herbicide amount (g/ha) means an amount that a concentration is adjusted so that, when an application amount is converted into per hectare (1 ha), the herbicide is applied by the number of grams (g) of the described value.
# [8] = tested on: Scirpus juncoides; assay: as above; conditions: Application herbicide amount 320 g/ha; Seventeenth Table
# From the text: as §2
# [9] = tested on: transplanted Oryza sativa; assay: Test Example 1: effect on crop, application before weed generation in submerged conditions; conditions: Application herbicide amount 320 g/ha; Seventeenth Table
# From the text: as §2
# [10] = tested on: Amaranthus retroflexus; assay: Test Example 4: herbicidal effect by application to foliage (diluvial soil, plastic box); conditions: application to foliage, application herbicide amount 320 g/ha
# From the text: (§3) 5 Herbicidal ratio of 90% or more (almost completely withered) 4 Herbicidal ratio of 70% or more and less than 90% 3 Herbicidal ratio of 40% or more and less than 70% 2 Herbicidal ratio of 20% or more and less than 40% 1 Herbicidal ratio of 5% or more and less than 20% 0 Herbicidal ratio of 5% or less (almost no effect) [Test Example 4] Herbicidal Effect Test by Application to Foliage Sterilized diluvial soil was placed in a plastic box having a length of 21 cm, a width of 13 cm, and a depth of 7 cm. Each of the seeds of Digitaria ciliaris, Setaria viridis, Echinochloa crus-galli var. crus-galli, Avena fatua, Alopecurus myosuroides, Lolium multiflorum Lam., Apera spica-venti., Abutilon theophrasti, Amaranthus retroflexus, Chenopodium album, Stellaria media, Galium spurium, Veronica persica, Zea mays, Glycine max, Oryza sativa, Triticum aestivum, Beta vulgaris ssp. vulgaris, and Brassica campestris L. was sowed in a spot-like manner and was covered with the soil of about 1.5 cm thick. Thereafter, the plants were grown in the greenhouse of 25° C. to 30° C. After the plants were grown for 14 days, the emulsion agent containing the compound of the present invention prepared in accordance with Formulation Example 2 was diluted with water so as to be a predetermined herbicide amount and the diluted compound was uniformly applied to a stem and leaf part with a small-size spray. Three weeks after the herbicide application, effects on each plant were investigated in accordance with the criteria of Test Example 1. A: Echinochloa oryzicola Vasing., B: Scirpus juncoides, C: Monochoria vaginalis, D: Leptochloa chinensis, E: Cyperus difformis, F: Digitaria ciliaris, G: Setaria viridis, H: Echinochloa crus-galli var. crus-galli, I: Avena fatua, J: Alopecurus myosuroides, K: Lolium multiflorum Lam., L: Apera spica-venti., M: Abutilon theophrasti, N: Amaranthus retroflexus, O: Chenopodium album, P: Stellaria media, Q: Galium spurium, R: Veronica persica, a: transplanted Oryza sativa, b: directly sowed Oryza sativa, c: Zea mays, d: Glycine max, e: Triticum aestivum, f: Beta vulgaris ssp. vulgaris, and g: Brassica campestris L. The application herbicide amount (g/ha) means an amount that a concentration is adjusted so that, when an application amount is converted into per hectare (1 ha), the herbicide is applied by the number of grams (g) of the described value.
# [11] = tested on: Digitaria ciliaris; assay: as above; conditions: application to foliage, application herbicide amount 320 g/ha
# From the text: as §3
# [12] = tested on: Setaria viridis; assay: as above; conditions: application to foliage, application herbicide amount 320 g/ha
# From the text: as §3
# [13] = tested on: Apera spica-venti.; assay: as above; conditions: application to foliage, application herbicide amount 320 g/ha
# From the text: as §3
# [14] = tested on: Alopecurus myosuroides; assay: as above; conditions: application to foliage, application herbicide amount 320 g/ha
# From the text: as §3
# [15] = tested on: Stellaria media; assay: as above; conditions: application to foliage, application herbicide amount 320 g/ha
# From the text: as §3
# [16] = tested on: Chenopodium album; assay: as above; conditions: application to foliage, application herbicide amount 320 g/ha
# From the text: as §3
# [17] = tested on: Galium spurium; assay: as above; conditions: application to foliage, application herbicide amount 320 g/ha
# From the text: as §3
# [18] = tested on: Abutilon theophrasti; assay: as above; conditions: application to foliage, application herbicide amount 320 g/ha
# From the text: as §3
# [19] = tested on: Echinochloa crus-galli var. crus-galli; assay: as above; conditions: application to foliage, application herbicide amount 320 g/ha
# From the text: as §3
# [20] = tested on: Lolium multiflorum Lam.; assay: as above; conditions: application to foliage, application herbicide amount 320 g/ha
# From the text: as §3
# [21] = tested on: Veronica persica; assay: as above; conditions: application to foliage, application herbicide amount 320 g/ha
# From the text: as §3
# [22] = tested on: Avena fatua; assay: as above; conditions: application to foliage, application herbicide amount 320 g/ha
# From the text: as §3
smiles,measurement,setting,value
CC#Cc1nnc2c(C(=O)Nc3nnc(C)o3)ccc(C(F)(F)F)n12 [1-161],"g: effect on crop, Brassica campestris L.",[1],0 (Herbicidal ratio of 5% or less (almost no effect))
same,"c: effect on crop, Zea mays",[2],0 (Herbicidal ratio of 5% or less (almost no effect))
same,"b: effect on crop, directly sowed Oryza sativa",[3],0 (Herbicidal ratio of 5% or less (almost no effect))
same,"d: effect on crop, Glycine max",[4],1 (Herbicidal ratio of 5% or more and less than 20%)
same,"e: effect on crop, Triticum aestivum",[5],0 (Herbicidal ratio of 5% or less (almost no effect))
same,"f: effect on crop, Beta vulgaris ssp. vulgaris",[6],1 (Herbicidal ratio of 5% or more and less than 20%)
same,C: Monochoria vaginalis (herbicidal effect grade),[7],0 (Herbicidal ratio of 5% or less (almost no effect))
same,B: Scirpus juncoides (herbicidal effect grade),[8],2 (Herbicidal ratio of 20% or more and less than 40%)
same,a: transplanted Oryza sativa (effect on crop grade),[9],0 (Herbicidal ratio of 5% or less (almost no effect))
same,N: herbicidal effect on Amaranthus retroflexus,[10],0 (Herbicidal ratio of 5% or less (almost no effect))
same,F: herbicidal effect on Digitaria ciliaris,[11],3 (Herbicidal ratio of 40% or more and less than 70%)
same,G: herbicidal effect on Setaria viridis,[12],0 (Herbicidal ratio of 5% or less (almost no effect))
same,L: herbicidal effect on Apera spica-venti.,[13],0 (Herbicidal ratio of 5% or less (almost no effect))
same,J: herbicidal effect on Alopecurus myosuroides,[14],0 (Herbicidal ratio of 5% or less (almost no effect))
same,P: herbicidal effect on Stellaria media,[15],0 (Herbicidal ratio of 5% or less (almost no effect))
same,O: herbicidal effect on Chenopodium album,[16],4 (Herbicidal ratio of 70% or more and less than 90%)
same,Q: herbicidal effect on Galium spurium,[17],0 (Herbicidal ratio of 5% or less (almost no effect))
same,M: herbicidal effect on Abutilon theophrasti,[18],1 (Herbicidal ratio of 5% or more and less than 20%)
same,H: herbicidal effect on Echinochloa crus-galli var. crus-galli,[19],3 (Herbicidal ratio of 40% or more and less than 70%)
same,K: herbicidal effect on Lolium multiflorum Lam.,[20],0 (Herbicidal ratio of 5% or less (almost no effect))
same,R: herbicidal effect on Veronica persica,[21],1 (Herbicidal ratio of 5% or more and less than 20%)
same,I: herbicidal effect on Avena fatua,[22],0 (Herbicidal ratio of 5% or less (almost no effect))
